From US20260184706A1, “PHENYLSULFONAMIDE DERIVATIVES, PREPARATION METHOD THEREFOR, AND PHARMACEUTICAL COMPOSITION FOR PREVENTION OR TREATMENT OF CANCER CONTAINING SAME AS ACTIVE INGREDIENT” (Korea Research Institute of Chemical Technology, priority 2022, published 2026) come the findings set out here.

As a reminder, the IC50 is the point on the concentration scale where inhibition reaches its midpoint.

Bounds are passed on as bounds.

In experiment [1] the target is recombinant human GCN2 protein (Homo sapiens, UniProt Q9P2K8). Put plainly: General control nonderepressible 2 (GCN2) inhibitory capacity, 33P-ATP filter assay. Format: biochemical. Particulars: recombinant human GCN2, 70 uM [gamma-33P-ATP], 40 minutes, room temperature. How it is done:
<Experimental Example 2> Evaluation of General Control Nonderepressible 2 (GCN2) Inhibitory Capacity
(§1) A recombinant human GCN2 protein was mixed with the compound in a reaction solution (20 mM Tris/HCl pH8.5, 0.2 mM EDTA, 0.1% Tween, 100 mM NaCl, 300 μM RSRSRSRSRSRSRSR, 10 mM Magnesium acetate, 70 uM [gamma-33P-ATP]) and reacted at room temperature for 40 minutes. Then, the reaction was terminated by adding phosphoric acid (0.5%) to the reaction mixture, and 10 ul of the reaction solution was dropped onto a P30 filter. The filter was washed four times in a 0.425% phosphoric acid solution for 4 minutes, then washed once more in methanol, dried, and the GCN2 activity was measured by scintillation counting. […] The compound was diluted by 1/3 from the highest concentration of 1 uM and treated with a total of 9 concentrations to evaluate the degree of inhibition.

Experiment [2] concerns the target T1, phosphorylated GCN2 (Homo sapiens, UniProt Q9P2K8).
T1 construct: endogenous in cells; host or cells: HT-1080
Put plainly: Inhibition of phosphorylated GCN2 under amino acid deficiency in HT-1080 cells, Western blot. In kind it is cell-based. Particulars: compound 50 nM, 24 hours. The procedure:
<Experimental Example 5> Evaluation of Inhibitory Efficacy of ISR-Related Kinase GCN2 Under Amino Acid Deficiency Condition Using Western Blot
HT-1080 cells, a human fibrosarcoma cell line, were cultured in RPMI-1640 medium supplemented with 10% FBS, penicillin (penicillin; 100 IU/ml), and streptomycin (streptomycin; 100 μg/ml). Cells (1×10^6 cells/ml) were seeded onto 100 mm plates (polypropylene tissue culture plate) and incubated for 24 hours in a 37° C., 5% CO2 incubator before being used for experiments.
The following method was used to achieve amino acid deficiency conditions in cells. After 24 hours of cell culture, the cells were cultured in amino acids and L-glutamine-free RPMI-1640 medium supplemented with 10% FBS, penicillin (100 IU/ml), and streptomycin (100 μg/ml). After 24 hours of cell culture in RPMI-1640 without amino acids and L-glutamine, the compound prepared at a concentration of 50 nM was dispensed onto each plate and cultured for 24 hours in a 37° C., 5% CO2 incubator.
In order to measure the signal transduction inhibitory efficacy of GCN among the ISR-related kinases according to the present invention, the following experiment was performed using SDS-PAGE. The fibrosarcoma cell line HT-1080 cells cultured on plates as described above were washed with PBS after removing the culture medium. After removing PBS, the cells were lysed by adding a radio-immunoprecipitation assay buffer (RIPA buffer) containing 50 mM Tris (pH 7.4), 150 mM NaCl, 1% NP-40, 0.5% sodium deoxycholate, 2 mM sodium fluoride, 2 mM EDTA, 0.1% SDS, and a protease/phosphatase inhibitor cocktail to the plate. After centrifugation at 4° C., 13,000×g for 15 minutes, the protein in the upper layer was collected, and the protein concentration was measured at 562 nm using BCA (bicinchoninc acid) reagent, and the amount of protein in all samples was prepared at 20-50 μg.
After making the total volume the same using the sample buffer and RIPA buffer, it was heated at 97° C. for 5 minutes. Then, electrophoresis was performed on 8% or 12% SDS-PAGE at 80 V for 30 minutes and at 160 V for 1 hour and 30 minutes. After electrophoresis, the SDS-PAGE gel was transferred to an NC membrane (nitrocellulose membrane) at 90 V for 2 hours. The NC membrane was placed in TBST (tris buffer saline tween-20; 20 mM tris, 137 mM sodium chloride, 0.1% tween-20, pH 8.0) containing 5% non-fat skim milk, placed on a shaker, and reacted at room temperature for 1 hour.
Each primary antibody was diluted in TBST containing 5% non-fat skim milk, poured onto the NC membrane, and reacted at 4° C. for 24 hours. The membrane was washed three times for 10 minutes each with TBST. The secondary antibodies (anti-rabbit IgG and anti-mouse IgG labeled with horseradish peroxidase (HRP)) were diluted in TBST containing 5% non-fat skim milk and reacted with the membrane at room temperature for 1 hour. Upon completion of the reaction, the membrane was washed three times with TBST for 10 minutes each. Protein expression bands were detected by a chemiluminescence image analyzer (Image Quant LAS 500) after the ECL solution was reacted with the NC membrane.
GCN2, a key kinase of the integrated stress response (ISR), is phosphorylated in response to amino acid deficiency.
A general note: A western blot detects proteins with antibodies after separation by electrophoresis.

The target of experiment [3] is T2, recombinant human PERK protein (Homo sapiens, UniProt Q9NZJ5).
T2 sequence (Q9NZJ5 30-1116): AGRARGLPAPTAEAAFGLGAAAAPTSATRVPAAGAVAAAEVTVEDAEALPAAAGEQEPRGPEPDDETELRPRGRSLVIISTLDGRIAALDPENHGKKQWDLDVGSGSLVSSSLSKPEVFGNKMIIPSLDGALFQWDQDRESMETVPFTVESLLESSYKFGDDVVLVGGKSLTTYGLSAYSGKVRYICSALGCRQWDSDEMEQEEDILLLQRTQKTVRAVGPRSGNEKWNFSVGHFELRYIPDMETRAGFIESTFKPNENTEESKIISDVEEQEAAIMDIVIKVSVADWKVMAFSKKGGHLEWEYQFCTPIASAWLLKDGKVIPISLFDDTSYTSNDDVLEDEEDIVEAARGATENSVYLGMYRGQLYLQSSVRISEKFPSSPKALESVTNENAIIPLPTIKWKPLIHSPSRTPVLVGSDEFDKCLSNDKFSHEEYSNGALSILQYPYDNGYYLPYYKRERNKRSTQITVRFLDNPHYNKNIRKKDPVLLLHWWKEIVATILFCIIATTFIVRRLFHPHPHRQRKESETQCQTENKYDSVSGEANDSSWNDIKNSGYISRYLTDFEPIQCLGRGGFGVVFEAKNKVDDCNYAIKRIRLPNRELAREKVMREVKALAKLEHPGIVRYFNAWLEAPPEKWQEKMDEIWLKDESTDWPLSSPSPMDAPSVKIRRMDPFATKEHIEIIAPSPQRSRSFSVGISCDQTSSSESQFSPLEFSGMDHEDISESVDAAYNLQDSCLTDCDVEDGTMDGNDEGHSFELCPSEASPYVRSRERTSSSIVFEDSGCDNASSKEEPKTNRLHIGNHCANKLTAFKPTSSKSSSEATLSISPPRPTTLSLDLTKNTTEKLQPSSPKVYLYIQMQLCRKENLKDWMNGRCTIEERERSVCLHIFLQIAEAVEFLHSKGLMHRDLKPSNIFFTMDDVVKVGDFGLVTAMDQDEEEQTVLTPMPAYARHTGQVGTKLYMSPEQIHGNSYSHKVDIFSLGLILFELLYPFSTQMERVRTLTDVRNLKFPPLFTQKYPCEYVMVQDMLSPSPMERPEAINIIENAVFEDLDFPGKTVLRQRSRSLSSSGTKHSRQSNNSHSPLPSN
Briefly: PKR-like endoplasmic reticulum kinase (PERK) inhibitory capacity, 33P-ATP filter assay. Particulars: 15 uM [gamma-33P-ATP], 40 minutes, room temperature. In kind it is biochemical. How it is done:
<Experimental Example 1> Evaluation of PKR-Like Endoplasmic Reticulum Kinase (PERK) Inhibitory Capacity
as §1, with “PERK” for “GCN2”, “(8” for “(20”, “MOPS pH 7.0,” for “Tris/HCl pH8.5,”, “EDTA,” for “EDTA, 0.1% Tween, 100 mM NaCl,”, “uM” for “μM”, “15” for “70”

recombinant human GCN2 protein, sequence (Q9P2K8 whole entry): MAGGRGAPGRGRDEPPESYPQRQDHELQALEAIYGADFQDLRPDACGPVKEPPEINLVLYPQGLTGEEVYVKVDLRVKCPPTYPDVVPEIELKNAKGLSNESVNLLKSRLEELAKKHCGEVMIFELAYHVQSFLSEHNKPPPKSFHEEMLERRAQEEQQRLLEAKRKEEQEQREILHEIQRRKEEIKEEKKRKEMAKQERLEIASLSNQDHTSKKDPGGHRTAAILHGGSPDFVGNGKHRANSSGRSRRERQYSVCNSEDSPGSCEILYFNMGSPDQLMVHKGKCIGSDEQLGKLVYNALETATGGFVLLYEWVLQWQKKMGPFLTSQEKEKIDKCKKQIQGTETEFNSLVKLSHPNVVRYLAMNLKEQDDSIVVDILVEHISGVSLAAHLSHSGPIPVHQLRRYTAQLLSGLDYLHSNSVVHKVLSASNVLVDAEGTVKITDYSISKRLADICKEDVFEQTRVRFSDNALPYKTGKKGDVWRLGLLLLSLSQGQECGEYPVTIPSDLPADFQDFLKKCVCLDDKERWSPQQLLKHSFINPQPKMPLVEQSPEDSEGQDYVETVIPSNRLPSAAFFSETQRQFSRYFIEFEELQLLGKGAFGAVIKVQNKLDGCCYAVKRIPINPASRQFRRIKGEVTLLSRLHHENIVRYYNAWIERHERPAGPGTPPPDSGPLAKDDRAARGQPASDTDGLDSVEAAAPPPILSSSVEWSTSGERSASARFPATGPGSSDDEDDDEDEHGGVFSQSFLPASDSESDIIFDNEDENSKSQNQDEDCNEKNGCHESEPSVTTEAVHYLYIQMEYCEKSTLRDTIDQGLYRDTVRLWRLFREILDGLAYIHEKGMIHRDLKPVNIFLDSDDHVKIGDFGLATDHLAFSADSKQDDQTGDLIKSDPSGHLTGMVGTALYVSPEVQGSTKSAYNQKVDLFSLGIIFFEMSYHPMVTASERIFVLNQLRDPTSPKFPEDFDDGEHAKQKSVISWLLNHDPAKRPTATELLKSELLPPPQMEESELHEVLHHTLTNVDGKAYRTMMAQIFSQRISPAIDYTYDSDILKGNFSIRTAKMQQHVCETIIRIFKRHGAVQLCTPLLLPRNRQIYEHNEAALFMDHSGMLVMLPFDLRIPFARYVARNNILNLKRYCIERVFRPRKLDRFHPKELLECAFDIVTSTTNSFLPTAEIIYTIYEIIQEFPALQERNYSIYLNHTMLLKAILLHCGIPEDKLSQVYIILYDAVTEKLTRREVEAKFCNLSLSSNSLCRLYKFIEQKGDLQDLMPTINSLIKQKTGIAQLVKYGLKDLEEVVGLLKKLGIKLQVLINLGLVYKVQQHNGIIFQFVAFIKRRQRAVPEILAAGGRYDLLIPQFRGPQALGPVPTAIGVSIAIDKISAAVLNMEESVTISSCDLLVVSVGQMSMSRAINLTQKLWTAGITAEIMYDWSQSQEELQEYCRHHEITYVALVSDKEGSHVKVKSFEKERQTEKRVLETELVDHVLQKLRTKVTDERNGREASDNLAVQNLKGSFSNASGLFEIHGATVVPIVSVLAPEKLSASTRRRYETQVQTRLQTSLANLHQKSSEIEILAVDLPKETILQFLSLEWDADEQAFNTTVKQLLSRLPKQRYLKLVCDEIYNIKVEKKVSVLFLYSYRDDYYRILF
T1 sequence (Q9P2K8 whole entry): as above

Regarding `Cc1nn(-c2c(F)ccc(NS(=O)(=O)c3c(Cl)nn(C)c3C)c2F)c(=O)c2cnc(N)nc12` [Example 36, N-(3-(2-amino-8-methyl-5-oxopyrimido[4,5-d]pyridazine-6(5H)-yl)-2,4-difluorophenyl)-3-chloro-1,5-dimethyl-1H-pyrazole-4-sulfonamide], the IC50 in experiment [1] fell in the range of 100 to 300 nM. Also, the “inhibitory effect on the phosphorylated GCN2” value in experiment [2] was “excellent inhibitory effect”.
On to `Cc1nn(C)c(C)c1S(=O)(=O)Nc1ccc(F)c(-n2c(=O)c3cnc(N)nc3n(C)c2=O)c1F` [Example 48, N-(3-(7-amino-1-methyl-2,4-dioxo-1,4-dihydropyrimido[4,5-d]pyrimidin-3(2H)-yl)-2,4-difluorophenyl)-1,3,5-trimethyl-1H-pyrazole-4-sulfonamide], for which the IC50 in experiment [1] fell in the range of 100 to 300 nM. For the same compound, the Phospho-GCN2 inhibition result in experiment [2] (symbols ◯ / X not defined) is “◯”.
On to `Cn1c(=O)c(-c2c(F)ccc(NS(=O)(=O)c3cccc4ccccc34)c2F)cc2cnc(N)nc21` [Example 16, N-(3-(2-amino-8-methyl-7-oxo-7,8-dihydropyrido[2,3-d]pyrimidin-6-yl)-2,4-difluorophenyl)naphthalene-1-sulfonamide], for which the IC50 in experiment [3] was below 100 nM; in experiment [1] it was 100 to 300 nM.
With `Cn1c(=O)c(-c2c(F)ccc(NS(=O)(=O)c3c(Cl)nc4sccn34)c2F)cc2cnc(N)nc21` [Example 15, N-(3-(2-amino-8-methyl-7-oxo-7,8-dihydropyrido[2,3-d]pyrimidin-6-yl)-2,4-difluorophenyl)-6-chloroimidazo[2,1-b]thiazole-5-sulfonamide], the results for the IC50 in experiment [3] and in experiment [1] were 100 to 300 nM and 300 to 1000 nM, respectively.
Take `Cn1c(=O)c(-c2c(F)ccc(NS(=O)(=O)c3cccnc3Cl)c2F)cc2cnc(N)nc21` [Example 11, N-(3-(2-amino-8-methyl-7-oxo-7,8-dihydropyrido[2,3-d]pyrimidin-6-yl)-2,4-difluorophenyl)-2-chloropyridine-3-sulfonamide]: the IC50 in experiment [3] and in experiment [1] was 100 to 300 nM each time.
With `Cn1c(=O)c(-c2c(F)ccc(NS(=O)(=O)c3cc(Cl)ccc3Cl)c2F)cc2cnc(N)nc21` [Example 14, N-(3-(2-amino-8-methyl-7-oxo-7,8-dihydropyrido[2,3-d]pyrimidin-6-yl)-2,4-difluorophenyl)-2,5-dichlorobenzenesulfonamide], the IC50 in experiment [3] and in experiment [1] was below 100 nM each time.
Regarding `Cc1nn(C)c(C(F)(F)F)c1S(=O)(=O)Nc1ccc(F)c(-c2cc3cnc(N)nc3n(C)c2=O)c1F` [Example 1, N-(3-(2-amino-8-methyl-7-oxo-7,8-dihydropyrido[2,3-d]pyrimidin-6-yl)-2,4-difluorophenyl)-1,3-dimethyl-5-(trifluoromethyl)-1H-pyrazole-4-sulfonamide], the IC50 in experiment [3] lay within 300 to 1000 nM; in experiment [1] it was 100 to 300 nM.
For `Cc1nn(C)c(Cl)c1S(=O)(=O)Nc1ccc(F)c(-c2cc3cnc(N)nc3n(C)c2=O)c1F` [Example 2, N-(3-(2-amino-8-methyl-7-oxo-7,8-dihydropyrido[2,3-d]pyrimidin-6-yl)-2,4-difluorophenyl)-5-chloro-1,3-dimethyl-1H-pyrazole-4-sulfonamide], the IC50 in experiment [3] was 300 to 1000 nM; in experiment [1], above 1000 nM.
For `Cn1c(=O)c(-c2c(F)ccc(NS(=O)(=O)c3ccc(Cl)nc3)c2F)cc2cnc(N)nc21` [Example 6, N-(3-(2-amino-8-methyl-7-oxo-7,8-dihydropyrido[2,3-d]pyrimidin-6-yl)-2,4-difluorophenyl)-6-chloropyridine-3-sulfonamide], the IC50 in experiment [3] and in experiment [1] was above 1000 nM in each case.
With `Cn1c(=O)c(-c2c(F)ccc(NS(=O)(=O)c3cc(C(F)(F)F)ccc3Cl)c2F)cc2cnc(N)nc21` [Example 18, N-(3-(2-amino-8-methyl-7-oxo-7,8-dihydropyrido[2,3-d]pyrimidin-6-yl)-2,4-difluorophenyl)-2-chloro-5-(trifluoromethyl)benzenesulfonamide], the figures for the IC50 in experiment [3] and in experiment [1] were below 100 nM and 100 to 300 nM, respectively.
In the same order, the values of `Cc1nn(C)c(C)c1S(=O)(=O)Nc1ccc(F)c(-c2cc3cnc(N)nc3n(C)c2=O)c1F` [Example 3, N-(3-(2-amino-8-methyl-7-oxo-7,8-dihydropyrido[2,3-d]pyrimidin-6-yl)-2,4-difluorophenyl)-1,3,5-trimethyl-1H-pyrazole-4-sulfonamide] are above 1000 nM and 300 to 1000 nM.
For `COc1ncc(Cl)cc1S(=O)(=O)Nc1ccc(F)c(-c2cc3cnc(N)nc3n(C)c2=O)c1F` [Example 4, N-(3-(2-amino-8-methyl-7-oxo-7,8-dihydropyrido[2,3-d]pyrimidin-6-yl)-2,4-difluorophenyl)-5-chloro-2-methoxypyridine-3-sulfonamide] the same measures were below 100 nM and above 1000 nM.
